Key:
hP2X7 = biological target: T1, hP2X7 (Homo sapiens, UniProt Q99572); test: ATP-induced ethidium+ uptake in stably transfected HEK-hP2X7 cells (flow cytometry); type: cell-based; details: for maximum ATP response, ethidium+ uptake: increasing ATP; for EC50: EC50 of ATP
T1 construct: expressed in transfected cells; host or cells: HEK293 cells, stably transfected (HEK-hP2X7)
T1 sequence (Q99572 1-595): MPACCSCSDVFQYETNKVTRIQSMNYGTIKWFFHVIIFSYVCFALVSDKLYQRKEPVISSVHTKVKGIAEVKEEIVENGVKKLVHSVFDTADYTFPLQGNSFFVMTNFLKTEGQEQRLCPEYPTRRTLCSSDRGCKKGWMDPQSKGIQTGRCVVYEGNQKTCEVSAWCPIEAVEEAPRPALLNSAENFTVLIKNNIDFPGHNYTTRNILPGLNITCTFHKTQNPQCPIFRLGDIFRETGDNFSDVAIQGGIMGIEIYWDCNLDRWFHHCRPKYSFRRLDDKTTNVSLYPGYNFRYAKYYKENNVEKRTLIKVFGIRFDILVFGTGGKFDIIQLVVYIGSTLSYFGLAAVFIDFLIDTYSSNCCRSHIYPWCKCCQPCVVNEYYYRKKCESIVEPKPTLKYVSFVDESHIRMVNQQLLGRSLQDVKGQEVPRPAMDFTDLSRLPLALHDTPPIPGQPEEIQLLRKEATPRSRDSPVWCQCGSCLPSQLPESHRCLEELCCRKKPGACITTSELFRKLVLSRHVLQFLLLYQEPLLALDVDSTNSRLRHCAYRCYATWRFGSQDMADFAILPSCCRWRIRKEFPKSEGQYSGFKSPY

mP2X7 = biological target: T2, mP2X7 (Mus musculus, UniProt Q9Z1M0); test: ATP-induced ethidium+ uptake in transfected HEK-mP2X7 cells; type: cell-based, murine
T2 construct: expressed in transfected cells; host or cells: HEK293 cells, transient transfection, GFP+ cells gated
T2 sequence (Q9Z1M0 1-595): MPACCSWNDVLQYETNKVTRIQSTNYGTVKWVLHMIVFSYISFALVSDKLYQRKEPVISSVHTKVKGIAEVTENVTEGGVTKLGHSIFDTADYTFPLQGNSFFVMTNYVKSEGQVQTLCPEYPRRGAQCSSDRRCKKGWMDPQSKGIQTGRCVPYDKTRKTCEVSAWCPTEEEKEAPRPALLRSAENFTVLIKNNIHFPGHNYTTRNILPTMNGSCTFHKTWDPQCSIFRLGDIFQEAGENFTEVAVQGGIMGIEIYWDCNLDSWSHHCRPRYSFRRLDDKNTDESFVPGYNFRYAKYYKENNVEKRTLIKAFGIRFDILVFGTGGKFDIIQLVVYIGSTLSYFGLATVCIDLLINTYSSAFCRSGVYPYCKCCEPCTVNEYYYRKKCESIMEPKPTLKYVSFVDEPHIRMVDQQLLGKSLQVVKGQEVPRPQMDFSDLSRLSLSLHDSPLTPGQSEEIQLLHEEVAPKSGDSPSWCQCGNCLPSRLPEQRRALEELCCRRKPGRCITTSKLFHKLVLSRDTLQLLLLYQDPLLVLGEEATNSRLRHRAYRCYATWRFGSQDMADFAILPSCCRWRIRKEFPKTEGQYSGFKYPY
Protocol: (§1) HEK293 cells were plated at 3.5 × 10^5 cells/well in 2 mL of complete DMEM/F12 medium and incubated (37 °C, 95% air/5% CO2, overnight). Cells were transfected with mP2X7-GFP (HEK-mP2X7), cP2X7-GFP (HEK-cP2X7) or hP2X4-EmGFP (HEK-hP2X4) plasmids, or mock transfected with an equivalent volume of sterile Milli-Q water (Merck Millipore, Burlington, NJ, USA), using Lipofectamine 3000 according to the manufacturer’s instructions. Cells were used for assays 48 h post-transfection. To determine transfection efficiency, cells were washed twice with D-PBS and data collected with an LSR Fortessa X-20 flow cytometer (BD Biosciences). The proportion of GFP positive cells was determined using FlowJo software v8.7.1 (BD Biosciences).
(§2) ATP-mediated uptake assays were conducted as described with either ethidium bromide or YO-PRO-1 iodide. Briefly, RPMI8226, HEK-hP2X7, HEK-mP2X7, HEK-cP2X7 or cryopreserved human peripheral blood mononuclear cells (PBMCs) were washed thrice with LDM (300× g, 5 min), resuspended in LDM and 1 × 10^6 cells were added to individual tubes. Cells were pre-incubated in the absence of compound (37 °C, 5 min) or in the presence of compound or vehicle (DMSO) (37 °C, 15 min) as indicated. […] An equal volume of ice-cold Mg^2+ stop solution was added and cells centrifuged (300× g, 5 min). Cells were washed twice in LDM (300× g, 5 min), resuspended and data were collected with an LSR Fortessa X-20 flow cytometer. MFI of ethidium^+ or YO-PRO-1^2+ was determined using FlowJo.

cP2X7 = biological target: T3, cP2X7 (Canis lupus familiaris, UniProt B0FLR1); test: ATP-induced ethidium+ uptake in transfected HEK-cP2X7 cells; type: cell-based, canine
T3 sequence (B0FLR1 1-595): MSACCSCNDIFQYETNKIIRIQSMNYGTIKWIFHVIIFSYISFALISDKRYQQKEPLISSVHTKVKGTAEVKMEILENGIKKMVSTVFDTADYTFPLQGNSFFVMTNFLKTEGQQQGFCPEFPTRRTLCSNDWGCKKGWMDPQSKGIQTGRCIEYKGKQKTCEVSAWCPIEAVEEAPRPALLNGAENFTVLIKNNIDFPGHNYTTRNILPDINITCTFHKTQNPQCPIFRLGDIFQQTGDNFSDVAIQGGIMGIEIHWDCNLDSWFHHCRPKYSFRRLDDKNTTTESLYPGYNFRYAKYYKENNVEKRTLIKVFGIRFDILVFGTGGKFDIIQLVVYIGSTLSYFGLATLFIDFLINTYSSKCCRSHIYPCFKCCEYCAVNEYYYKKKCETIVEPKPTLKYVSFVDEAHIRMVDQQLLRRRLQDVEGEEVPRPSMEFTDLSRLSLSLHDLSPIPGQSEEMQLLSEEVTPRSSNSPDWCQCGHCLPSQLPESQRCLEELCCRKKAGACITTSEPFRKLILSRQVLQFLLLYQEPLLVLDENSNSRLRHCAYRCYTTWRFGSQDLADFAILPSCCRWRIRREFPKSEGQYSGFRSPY
Protocol: as §1, §2

| Structure (SMILES) | maximum ATP response, ethidium+ uptake (hP2X7; 0.3 μM 6-FPHMA) [%] | maximum ATP response, ethidium+ uptake (hP2X7; 3 μM 6-FPHMA) [%] | maximum ATP response, ethidium+ uptake (hP2X7; 30 μM 6-FPHMA) [%] | blockade of hP2X7-mediated dye uptake (hP2X7; 100 μM compound, 450 μM ATP, HEK-hP2X7 cells) [%] | mode of inhibition (hP2X7; ethidium+ uptake, HEK-hP2X7 cells) | IC50 (hP2X7; read-out: IC50, hP2X7-mediated dye uptake) [µM] | blockade of mP2X7-mediated dye uptake (mP2X7; 100 μM compound, 360 μM ATP) [%] | activity against murine P2X7 relative to hP2X7 and cP2X7 (mP2X7; comparison of IC50 values) | IC50 (mP2X7; read-out: IC50, mP2X7-mediated dye uptake) [µM] | IC50 (cP2X7; read-out: IC50, cP2X7-mediated dye uptake) [µM] | inhibition at 30 µM (cP2X7; read-out: blockade of cP2X7-mediated dye uptake) [%] | EC50 (hP2X7; ethidium+ uptake, HEK-hP2X7 cells, no antagonist (Figure 2C)) [µM] | EC50 (hP2X7; ethidium+ uptake, in presence of 0.3 μM 6-FPHMA) [µM] | EC50 (hP2X7; ethidium+ uptake, in presence of 3 μM 6-FPHMA) [µM] | EC50 (hP2X7; ethidium+ uptake, in presence of 30 μM 6-FPHMA) [µM] | EC50 (hP2X7; ethidium+ uptake, pre-incubated with DMSO vehicle (Figure 2E)) [µM] | EC50 (mP2X7; GFP+ HEK-mP2X7 cells) [µM] | ATP concentration giving maximum response, ethidium+ uptake (mP2X7; HEK-mP2X7 cells) [mM] | EC50 (cP2X7) [µM] | ATP concentration giving maximum response, ethidium+ uptake (cP2X7; HEK-cP2X7 cells) [mM] |
| --- | --- | --- | --- | --- | --- | --- | --- | --- | --- | --- | --- | --- | --- | --- | --- | --- | --- | --- | --- | --- |
| N=C(N)NC(=O)c1nc(-c2cc3cnccc3o2)c(N2CCCCCC2)nc1N [6-FPHMA, 6-furopyridine-substituted 5-(N,N-hexamethylene) amiloride] | 90 ± 4 | 52 ± 3 | 13 ± 1 | 95 | non-competitive | 1.63 ± 0.42 | 96 | ten-fold less active | 23 ± 2.4 | 1.28 ± 0.47 | 100 |  |  |  |  |  |  |  |  |  |
| Nc1ncnc2c1ncn2[C@@H]1O[C@H](COP(=O)(O)OP(=O)(O)OP(=O)(O)O)[C@@H](O)[C@H]1O [ATP, adenosine 5′-triphosphate] |  |  |  |  |  |  |  |  |  |  |  | 466 ± 17 | 464 ± 52 | 517 ± 49 | 557 ± 47 | 419 ± 24 | 364 ± 48 | 2 | 424 ± 67 | 2 |

Source: PMC9496321, “6-Furopyridine Hexamethylene Amiloride Is a Non-Selective P2X7 Receptor Antagonist” (Biomolecules, 2022)
